Reference: publication PMC6438731, “Extrasynaptic δ‐GABAA receptors are high‐affinity muscimol receptors” (Journal of Neurochemistry, 2019)

Columns and labels:
[1] = target: T1, α1β2 recombinant GABAA receptor (Rattus norvegicus, UniProt P62813+P63138); assay: [^3H]muscimol binding kinetics, recombinant α1β2 in HEK293 membranes; details: room temperature (22°C)
T1 construct: expressed in transfected cells; host or cells: HEK293 (ATCC CRL-1573), pRK5 plasmids, membranes
Text: Human embryonic kidney (HEK) 293 cells (ATCC Cat# CRL‐1573; RRID: CVCL_0045; a commonly misidentified cell line by ICLAC; last authenticated by STR DNA profiling in December 2018) were transfected with rat cDNAs (α1, L08490; α6, L08495; β2, X15467; β3, X15468; γ2S, L08497; δ, L08496) in pRK5 plasmids under the control of the cytomegalovirus promoter (Uusi‐Oukari et al. 2000), using the calcium phosphate precipitation method essentially as described (Lüddens and Korpi 1997). The plasmids were used in 1 : 1 and 1 : 1 : 1 ratios for transfections containing 2 [(α1 or α6) + (β2 or β3)] or 3 [(α1 or α6) + (β2 or β3) + (γ2S or δ)] different subunits, respectively (5 μg of each plasmid DNA for a 10 cm plate). […]
The binding of [^3H]muscimol (5 nM) was measured in assay buffer at 22°C in a total volume of 300 μL. […] Air‐dried filters were immersed in 3 mL of Optiphase HiSafe 3 scintillation fluid (Wallac, Turku, Finland) and radioactivity determined in a Wallac model 1410 liquid scintillation counter (Wallac, Turku, Finland).
(§1) The tubes were mixed and incubations at 22°C were terminated at various time points (30 s – 30 min) as described above. Dissociation of [^3H]muscimol from recombinant receptors in HEK cell membranes was also measured at 0–4°C (on ice) to evaluate how fast [^3H]muscimol dissociates from receptors while washing the filter with ice‐cold assay buffer during filtration.

[2] = parameters: method as in Maggi and Enna 1979; details: rat brain, ref Maggi and Enna 1979; cited from earlier work
[3] = target: T2, α6β2γ2 recombinant GABAA receptor (Rattus norvegicus, UniProt P30191+P63138); assay: [^3H]muscimol binding kinetics, recombinant α6β2γ2 in HEK293 membranes
T2 construct: expressed in transfected cells; host or cells: HEK293 (ATCC CRL-1573), pRK5 plasmids, membranes
Text: Human embryonic kidney (HEK) 293 cells (ATCC Cat# CRL‐1573; RRID: CVCL_0045; a commonly misidentified cell line by ICLAC; last authenticated by STR DNA profiling in December 2018) were transfected with rat cDNAs (α1, L08490; α6, L08495; β2, X15467; β3, X15468; γ2S, L08497; δ, L08496) in pRK5 plasmids under the control of the cytomegalovirus promoter (Uusi‐Oukari et al. 2000), using the calcium phosphate precipitation method essentially as described (Lüddens and Korpi 1997). The plasmids were used in 1 : 1 and 1 : 1 : 1 ratios for transfections containing 2 [(α1 or α6) + (β2 or β3)] or 3 [(α1 or α6) + (β2 or β3) + (γ2S or δ)] different subunits, respectively (5 μg of each plasmid DNA for a 10 cm plate). Mock transfection was done using 5 μg pRK5 plasmid backbone. The cells were harvested 48 h after transfection. Culture medium was removed and the cells were detached from the plates by pipetting in ice‐cold assay buffer containing 2 mM EDTA. The cells were homogenized (Ultra Turrax, 20 s at 9500 rpm), the homogenates centrifuged at 20 000 g for 10 min at +4°C, and washed once with the same buffer. The homogenates were finally suspended in assay buffer (1 mL/plate) and either used directly to binding assays or stored frozen at −70°C.
The binding of [^3H]muscimol (5 nM) was measured in assay buffer at 22°C in a total volume of 300 μL. Triplicate technical replicates of mouse forebrain (190–215 μg protein), cerebellar (180–210 μg protein) or HEK cell (92–132 μg protein) membranes for each time point were incubated with shaking for various times (15 s–15 min) to measure association of the binding. […] The incubation was terminated by filtration of the samples with a Brandel Cell Harvester (model M‐24, Gaithersburg, MD, USA) onto Whatman GF/B filters (Whatman International Ltd., Maidstone, UK). The samples were rinsed twice with 4–5 mL of ice‐cold assay buffer. Filtration and rinsing steps took a total time of ~15 s. Air‐dried filters were immersed in 3 mL of Optiphase HiSafe 3 scintillation fluid (Wallac, Turku, Finland) and radioactivity determined in a Wallac model 1410 liquid scintillation counter (Wallac, Turku, Finland). The maximal binding disintegrations per minute (DPM) values (at 15 min in association) for recombinant studies with 5 nM [^3H]muscimol were between 700 and 2500 DPMs of specific binding (background subtracted). […]
as §1

T2 sequence (P30191 20-453): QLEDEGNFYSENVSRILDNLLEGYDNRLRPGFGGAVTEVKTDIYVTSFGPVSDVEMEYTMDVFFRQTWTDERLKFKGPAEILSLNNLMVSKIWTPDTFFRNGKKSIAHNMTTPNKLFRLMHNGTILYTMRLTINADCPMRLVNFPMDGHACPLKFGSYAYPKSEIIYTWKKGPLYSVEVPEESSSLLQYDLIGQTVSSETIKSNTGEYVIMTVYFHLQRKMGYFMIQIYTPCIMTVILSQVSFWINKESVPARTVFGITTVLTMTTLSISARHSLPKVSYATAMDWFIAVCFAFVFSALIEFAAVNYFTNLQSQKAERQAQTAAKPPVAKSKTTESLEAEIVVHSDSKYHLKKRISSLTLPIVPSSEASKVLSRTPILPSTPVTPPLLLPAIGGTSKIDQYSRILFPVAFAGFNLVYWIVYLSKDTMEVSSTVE
T2 sequence (P63138 26-474): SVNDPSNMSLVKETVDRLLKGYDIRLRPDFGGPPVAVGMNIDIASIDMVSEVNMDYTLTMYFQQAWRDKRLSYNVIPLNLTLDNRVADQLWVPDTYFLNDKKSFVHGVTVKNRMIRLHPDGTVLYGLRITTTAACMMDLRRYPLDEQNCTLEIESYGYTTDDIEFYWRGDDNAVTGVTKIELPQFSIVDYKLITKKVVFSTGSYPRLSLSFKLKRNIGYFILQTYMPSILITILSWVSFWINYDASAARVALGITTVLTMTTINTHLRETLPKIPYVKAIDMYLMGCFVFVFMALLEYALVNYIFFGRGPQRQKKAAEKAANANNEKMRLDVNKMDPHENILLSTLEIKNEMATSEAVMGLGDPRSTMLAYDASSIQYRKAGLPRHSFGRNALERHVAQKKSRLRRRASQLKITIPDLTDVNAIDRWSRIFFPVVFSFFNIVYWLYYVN
T2 sequence (P18508 39-466 partner): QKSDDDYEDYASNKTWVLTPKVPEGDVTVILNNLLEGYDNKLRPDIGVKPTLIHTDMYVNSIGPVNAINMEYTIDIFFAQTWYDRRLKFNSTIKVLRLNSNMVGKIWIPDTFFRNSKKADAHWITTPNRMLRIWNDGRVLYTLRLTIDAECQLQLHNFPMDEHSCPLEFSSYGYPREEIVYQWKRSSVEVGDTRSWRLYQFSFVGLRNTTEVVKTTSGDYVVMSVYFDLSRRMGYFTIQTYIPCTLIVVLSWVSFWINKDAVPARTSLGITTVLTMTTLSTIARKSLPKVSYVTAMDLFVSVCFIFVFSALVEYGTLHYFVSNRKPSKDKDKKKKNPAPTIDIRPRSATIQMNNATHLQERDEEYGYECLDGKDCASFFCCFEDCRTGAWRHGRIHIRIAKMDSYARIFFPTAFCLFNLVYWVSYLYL
T1 sequence (P62813 28-455): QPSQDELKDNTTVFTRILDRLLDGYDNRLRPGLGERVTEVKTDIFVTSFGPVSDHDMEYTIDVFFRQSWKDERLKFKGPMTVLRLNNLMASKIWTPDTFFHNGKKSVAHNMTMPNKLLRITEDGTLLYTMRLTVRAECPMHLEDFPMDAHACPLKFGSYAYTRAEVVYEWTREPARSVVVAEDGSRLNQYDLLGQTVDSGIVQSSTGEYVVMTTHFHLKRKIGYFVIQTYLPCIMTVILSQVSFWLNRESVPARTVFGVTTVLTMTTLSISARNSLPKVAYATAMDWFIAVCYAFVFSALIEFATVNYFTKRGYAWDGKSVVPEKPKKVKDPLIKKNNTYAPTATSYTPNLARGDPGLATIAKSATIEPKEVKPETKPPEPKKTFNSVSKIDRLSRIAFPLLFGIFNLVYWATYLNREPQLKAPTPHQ
T1 sequence (P63138 26-474): as the sequence (P63138 26-474) above

Structure (SMILES): NCc1cc(=O)[nH]o1 [[^3H]muscimol] [[Methylene‐^3H]muscimol]
- k off [1]: 0.49 ± 0.07 ^### min^−1
- fraction of peripherally injected [^3H]muscimol that entered the brain [2]: around 0.02%
- Kd ([3]; 22°C, K D = koff/kon): 1.6 nM
- k off ([3]; +4 °C): 0.086 ± 0.010 ^, ^** min^−1
- k off ([3]; room temperature (22°C)): 0.98 ± 0.02 ^### ^, ^††† min^−1
- k on ([3]; room temperature (22°C), 5 nM [^3H]muscimol): 6.3 ± 0.5 × 10^8, ^### ^, ^††† M^−1 × min^−1
